Values of other authors as cited in patent publication US20180235869A1, “METHODS AND COMPOSITIONS FOR SOFT ANTICHOLINERGIC ZWITTERIONS” (Bodor Laboratories, Inc., priority 2015, published 2018).

Settings: solid oral form

## C[N+]1(C)CCC(OC(=O)C(O)(c2ccccc2)C2CCCC2)C1 (stereo not drawn) [glycopyrrolate]
children
  reducing drooling: effective in reducing drooling
children, most with cerebral palsy
  dropped out of the study because of adverse effects: over 20%
Most with cerebral palsy
  children affected by adverse events: 69%
